Data from ChEMBL document CHEMBL4507283, “Data for DCP probe BI-1935” (2021).
The source made the active and inactive calls. No cut-off for these calls is given here.

Columns and labels:
[1] = target: TGF-beta receptor type-2 (Homo sapiens) (UniProt P37173); conditions: Compound concentration 1000.0 nM
[2] = target: Tyrosine-protein kinase JAK1 (Homo sapiens) (UniProt P23458); conditions: Compound concentration 1000.0 nM
[3] = tested on: Tyrosine-protein kinase ABL1 (Homo sapiens), P00519 [Y253F]; conditions: Compound concentration 1000.0 nM
[4] = target: Serine/threonine-protein kinase RIO2 (Homo sapiens) (UniProt Q9BVS4); conditions: Compound concentration 1000.0 nM
[5] = target: Bone morphogenetic protein receptor type-2 (Homo sapiens) (UniProt Q13873); conditions: Compound concentration 1000.0 nM
[6] = target: Serine/threonine-protein kinase Nek7 (Homo sapiens) (UniProt Q8TDX7); conditions: Compound concentration 1000.0 nM
[7] = target: T1, Bifunctional epoxide hydrolase 2 (Homo sapiens, UniProt P34913); assay: Human soluble epoxide hydrolase inhibition
T1 sequence (P34913 whole entry): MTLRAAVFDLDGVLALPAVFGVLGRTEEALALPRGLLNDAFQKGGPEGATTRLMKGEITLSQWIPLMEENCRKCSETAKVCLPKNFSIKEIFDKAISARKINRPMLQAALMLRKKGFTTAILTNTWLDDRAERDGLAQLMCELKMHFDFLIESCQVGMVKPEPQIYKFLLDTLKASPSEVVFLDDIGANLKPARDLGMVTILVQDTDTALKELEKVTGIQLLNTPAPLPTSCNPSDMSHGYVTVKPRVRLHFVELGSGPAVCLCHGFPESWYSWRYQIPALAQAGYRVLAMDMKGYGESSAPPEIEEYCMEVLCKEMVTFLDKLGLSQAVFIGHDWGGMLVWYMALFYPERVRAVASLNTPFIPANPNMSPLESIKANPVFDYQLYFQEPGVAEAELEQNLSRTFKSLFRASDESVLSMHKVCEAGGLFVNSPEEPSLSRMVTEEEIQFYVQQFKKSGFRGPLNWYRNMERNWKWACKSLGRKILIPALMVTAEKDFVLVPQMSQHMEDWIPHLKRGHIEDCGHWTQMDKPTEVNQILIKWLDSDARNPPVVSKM

[8] = tested on: Fibroblast growth factor receptor 3 (Homo sapiens), P22607 [G697C]; conditions: Compound concentration 1000.0 nM
[9] = target: Serine/threonine-protein kinase pim-3 (Homo sapiens) (UniProt Q86V86); conditions: Compound concentration 1000.0 nM
[10] = target: Dual specificity mitogen-activated protein kinase kinase 1 (Homo sapiens) (UniProt Q02750); conditions: Compound concentration 1000.0 nM
[11] = target: 5-hydroxytryptamine receptor 1A (Homo sapiens) (UniProt P08908); conditions: Compound concentration 10.0 uM
[12] = target: Serine/threonine-protein kinase Chk1 (Homo sapiens) (UniProt O14757); conditions: Compound concentration 1000.0 nM
[13] = target: Dual specificity protein kinase TTK (Homo sapiens) (UniProt P33981); conditions: Compound concentration 1000.0 nM
[14] = target: Dual specificity mitogen-activated protein kinase kinase 6 (Homo sapiens) (UniProt P52564); conditions: Compound concentration 1000.0 nM
[15] = target: Serine/threonine-protein kinase Nek6 (Homo sapiens) (UniProt Q9HC98); conditions: Compound concentration 1000.0 nM
[16] = target: Cyclin-dependent kinase 19 (Homo sapiens) (UniProt Q9BWU1); conditions: Compound concentration 1000.0 nM
[17] = target: Serine/threonine-protein kinase/endoribonuclease IRE1 (Homo sapiens) (UniProt O75460); conditions: Compound concentration 1000.0 nM
[18] = target: Serine/threonine-protein kinase TAO1 (Homo sapiens) (UniProt Q7L7X3); conditions: Compound concentration 1000.0 nM
[19] = target: Serine/threonine-protein kinase Nek10 (Homo sapiens) (UniProt Q6ZWH5); conditions: Compound concentration 1000.0 nM
[20] = target: Serine/threonine-protein kinase LATS1 (Homo sapiens) (UniProt O95835); conditions: Compound concentration 1000.0 nM
[21] = target: Cyclin-dependent kinase 2 homolog (Plasmodium falciparum (isolate 3D7)) (UniProt P61075); conditions: Compound concentration 1000.0 nM
[22] = target: Receptor-type tyrosine-protein kinase FLT3 (Homo sapiens) (UniProt P36888); conditions: Compound concentration 1000.0 nM
[23] = target: Inhibitor of nuclear factor kappa-B kinase subunit epsilon (Homo sapiens) (UniProt Q14164); conditions: Compound concentration 1000.0 nM
[24] = target: Platelet-derived growth factor receptor alpha (Homo sapiens) (UniProt P16234); conditions: Compound concentration 1000.0 nM
[25] = target: Beta-1 adrenergic receptor (Homo sapiens) (UniProt P08588); conditions: Compound concentration 10.0 uM
[26] = target: Serine/threonine-protein kinase D2 (Homo sapiens) (UniProt Q9BZL6); conditions: Compound concentration 1000.0 nM
[27] = target: Mitogen-activated protein kinase kinase kinase kinase 1 (Homo sapiens) (UniProt Q92918); conditions: Compound concentration 1000.0 nM
[28] = target: Homeodomain-interacting protein kinase 4 (Homo sapiens) (UniProt Q8NE63); conditions: Compound concentration 1000.0 nM
[29] = target: Mitogen-activated protein kinase 11 (Homo sapiens) (UniProt Q15759); conditions: Compound concentration 1000.0 nM
[30] = target: Ribosomal protein S6 kinase alpha-2 (Homo sapiens) (UniProt Q15349); conditions: Compound concentration 1000.0 nM

Platelet-derived growth factor receptor alpha (Homo sapiens), sequence (P16234 whole entry): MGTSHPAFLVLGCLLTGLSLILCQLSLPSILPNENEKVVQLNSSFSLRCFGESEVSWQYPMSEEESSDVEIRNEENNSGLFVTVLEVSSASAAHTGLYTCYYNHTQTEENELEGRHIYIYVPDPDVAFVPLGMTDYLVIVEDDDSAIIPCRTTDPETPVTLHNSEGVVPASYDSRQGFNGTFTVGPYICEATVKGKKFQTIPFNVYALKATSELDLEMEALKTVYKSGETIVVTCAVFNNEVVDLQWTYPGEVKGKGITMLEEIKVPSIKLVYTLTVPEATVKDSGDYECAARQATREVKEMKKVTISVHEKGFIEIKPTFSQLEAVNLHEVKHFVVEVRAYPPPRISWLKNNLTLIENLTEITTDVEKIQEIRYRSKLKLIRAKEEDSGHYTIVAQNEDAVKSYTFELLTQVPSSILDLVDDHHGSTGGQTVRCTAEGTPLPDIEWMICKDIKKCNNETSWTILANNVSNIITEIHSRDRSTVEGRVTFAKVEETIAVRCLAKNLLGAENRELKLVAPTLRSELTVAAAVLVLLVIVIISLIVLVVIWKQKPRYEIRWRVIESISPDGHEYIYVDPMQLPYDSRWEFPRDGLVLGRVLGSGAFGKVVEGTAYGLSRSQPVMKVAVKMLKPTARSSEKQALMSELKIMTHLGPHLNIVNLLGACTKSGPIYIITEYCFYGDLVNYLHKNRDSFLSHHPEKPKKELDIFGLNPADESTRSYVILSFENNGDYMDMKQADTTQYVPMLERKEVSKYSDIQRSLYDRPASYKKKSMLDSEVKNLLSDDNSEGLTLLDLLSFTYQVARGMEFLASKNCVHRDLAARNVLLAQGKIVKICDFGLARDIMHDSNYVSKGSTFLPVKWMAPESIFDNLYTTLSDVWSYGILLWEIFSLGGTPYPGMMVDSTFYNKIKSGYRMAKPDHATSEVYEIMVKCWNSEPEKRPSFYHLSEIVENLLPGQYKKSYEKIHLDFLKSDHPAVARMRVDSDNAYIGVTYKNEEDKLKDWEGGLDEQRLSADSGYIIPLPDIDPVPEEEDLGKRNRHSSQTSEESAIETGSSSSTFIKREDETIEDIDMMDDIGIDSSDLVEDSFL
Serine/threonine-protein kinase Nek6 (Homo sapiens), sequence (Q9HC98 whole entry): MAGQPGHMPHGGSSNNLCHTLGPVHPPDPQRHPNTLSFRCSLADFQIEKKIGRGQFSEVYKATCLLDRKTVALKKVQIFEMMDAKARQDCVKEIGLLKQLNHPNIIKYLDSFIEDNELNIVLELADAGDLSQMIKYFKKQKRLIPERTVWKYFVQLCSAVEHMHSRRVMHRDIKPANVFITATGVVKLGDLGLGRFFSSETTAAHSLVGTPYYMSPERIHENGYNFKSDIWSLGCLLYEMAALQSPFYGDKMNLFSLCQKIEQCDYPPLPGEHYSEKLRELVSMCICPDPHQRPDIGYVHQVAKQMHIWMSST
Dual specificity protein kinase TTK (Homo sapiens), sequence (P33981 whole entry): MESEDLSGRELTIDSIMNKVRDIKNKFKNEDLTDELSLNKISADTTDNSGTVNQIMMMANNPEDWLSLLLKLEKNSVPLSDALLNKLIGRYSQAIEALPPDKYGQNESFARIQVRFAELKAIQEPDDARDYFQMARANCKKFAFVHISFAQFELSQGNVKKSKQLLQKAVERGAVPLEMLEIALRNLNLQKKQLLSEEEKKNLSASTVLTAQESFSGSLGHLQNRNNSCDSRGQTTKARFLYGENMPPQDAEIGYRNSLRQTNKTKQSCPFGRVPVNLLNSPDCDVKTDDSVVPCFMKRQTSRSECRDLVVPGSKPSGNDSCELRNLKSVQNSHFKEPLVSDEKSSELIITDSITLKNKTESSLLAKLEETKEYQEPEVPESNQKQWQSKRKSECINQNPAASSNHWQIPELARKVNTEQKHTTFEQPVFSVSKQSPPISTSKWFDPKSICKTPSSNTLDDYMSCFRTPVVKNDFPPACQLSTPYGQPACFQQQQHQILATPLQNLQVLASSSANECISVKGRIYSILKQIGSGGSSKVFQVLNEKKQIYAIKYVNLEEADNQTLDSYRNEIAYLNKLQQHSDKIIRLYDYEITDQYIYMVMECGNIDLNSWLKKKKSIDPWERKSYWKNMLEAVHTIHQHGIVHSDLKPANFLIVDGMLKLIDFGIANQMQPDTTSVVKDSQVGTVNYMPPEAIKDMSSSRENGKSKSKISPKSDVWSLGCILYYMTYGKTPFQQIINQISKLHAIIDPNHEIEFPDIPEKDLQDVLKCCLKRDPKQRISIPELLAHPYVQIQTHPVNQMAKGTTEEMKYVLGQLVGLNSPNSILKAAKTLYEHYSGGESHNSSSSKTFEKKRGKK
Serine/threonine-protein kinase Chk1 (Homo sapiens), sequence (O14757 whole entry): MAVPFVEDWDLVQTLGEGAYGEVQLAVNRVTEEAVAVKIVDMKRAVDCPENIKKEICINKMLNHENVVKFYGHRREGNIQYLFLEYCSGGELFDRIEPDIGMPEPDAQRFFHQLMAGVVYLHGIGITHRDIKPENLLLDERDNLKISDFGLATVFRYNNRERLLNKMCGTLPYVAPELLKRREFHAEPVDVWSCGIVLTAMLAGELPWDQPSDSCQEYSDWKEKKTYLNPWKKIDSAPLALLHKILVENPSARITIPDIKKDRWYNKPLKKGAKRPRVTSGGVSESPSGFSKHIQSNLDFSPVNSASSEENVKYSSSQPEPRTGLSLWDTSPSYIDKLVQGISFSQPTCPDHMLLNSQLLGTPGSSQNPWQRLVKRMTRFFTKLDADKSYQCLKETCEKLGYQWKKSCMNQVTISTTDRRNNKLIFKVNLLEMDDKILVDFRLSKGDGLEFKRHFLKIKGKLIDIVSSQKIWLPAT
Cyclin-dependent kinase 2 homolog (Plasmodium falciparum (isolate 3D7)), sequence (P61075 whole entry): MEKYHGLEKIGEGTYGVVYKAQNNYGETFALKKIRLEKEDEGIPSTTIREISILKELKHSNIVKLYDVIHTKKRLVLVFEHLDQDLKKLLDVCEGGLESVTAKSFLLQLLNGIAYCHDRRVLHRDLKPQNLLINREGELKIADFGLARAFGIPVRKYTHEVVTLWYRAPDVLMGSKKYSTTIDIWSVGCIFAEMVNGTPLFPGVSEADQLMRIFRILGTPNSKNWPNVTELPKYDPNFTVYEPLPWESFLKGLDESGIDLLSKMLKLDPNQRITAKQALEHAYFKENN
Receptor-type tyrosine-protein kinase FLT3 (Homo sapiens), sequence (P36888 whole entry): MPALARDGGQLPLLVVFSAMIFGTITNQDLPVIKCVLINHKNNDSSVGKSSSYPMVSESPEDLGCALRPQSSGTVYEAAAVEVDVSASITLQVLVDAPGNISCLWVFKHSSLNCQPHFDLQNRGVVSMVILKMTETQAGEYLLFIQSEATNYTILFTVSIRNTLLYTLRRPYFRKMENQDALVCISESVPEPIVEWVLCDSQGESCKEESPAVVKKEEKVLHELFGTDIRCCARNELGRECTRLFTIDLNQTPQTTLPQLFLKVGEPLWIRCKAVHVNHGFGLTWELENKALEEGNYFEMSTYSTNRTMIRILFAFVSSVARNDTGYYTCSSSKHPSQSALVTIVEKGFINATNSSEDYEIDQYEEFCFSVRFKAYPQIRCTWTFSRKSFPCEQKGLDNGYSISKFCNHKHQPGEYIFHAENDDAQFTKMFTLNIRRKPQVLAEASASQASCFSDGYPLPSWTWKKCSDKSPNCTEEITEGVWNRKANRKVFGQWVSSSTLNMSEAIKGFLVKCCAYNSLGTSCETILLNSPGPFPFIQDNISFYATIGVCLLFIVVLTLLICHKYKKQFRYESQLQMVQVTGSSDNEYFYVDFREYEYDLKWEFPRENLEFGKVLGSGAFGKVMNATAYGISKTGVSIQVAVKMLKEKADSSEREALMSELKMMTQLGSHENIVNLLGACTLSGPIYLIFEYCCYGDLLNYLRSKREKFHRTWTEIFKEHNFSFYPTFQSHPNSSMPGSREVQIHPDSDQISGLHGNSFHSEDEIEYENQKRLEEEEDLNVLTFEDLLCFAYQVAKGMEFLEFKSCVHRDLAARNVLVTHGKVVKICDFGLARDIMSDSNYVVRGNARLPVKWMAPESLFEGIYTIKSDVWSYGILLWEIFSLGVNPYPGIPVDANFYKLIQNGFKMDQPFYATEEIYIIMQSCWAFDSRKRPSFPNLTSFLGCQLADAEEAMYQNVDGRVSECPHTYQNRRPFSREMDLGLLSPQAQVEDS
Serine/threonine-protein kinase TAO1 (Homo sapiens), sequence (Q7L7X3 whole entry): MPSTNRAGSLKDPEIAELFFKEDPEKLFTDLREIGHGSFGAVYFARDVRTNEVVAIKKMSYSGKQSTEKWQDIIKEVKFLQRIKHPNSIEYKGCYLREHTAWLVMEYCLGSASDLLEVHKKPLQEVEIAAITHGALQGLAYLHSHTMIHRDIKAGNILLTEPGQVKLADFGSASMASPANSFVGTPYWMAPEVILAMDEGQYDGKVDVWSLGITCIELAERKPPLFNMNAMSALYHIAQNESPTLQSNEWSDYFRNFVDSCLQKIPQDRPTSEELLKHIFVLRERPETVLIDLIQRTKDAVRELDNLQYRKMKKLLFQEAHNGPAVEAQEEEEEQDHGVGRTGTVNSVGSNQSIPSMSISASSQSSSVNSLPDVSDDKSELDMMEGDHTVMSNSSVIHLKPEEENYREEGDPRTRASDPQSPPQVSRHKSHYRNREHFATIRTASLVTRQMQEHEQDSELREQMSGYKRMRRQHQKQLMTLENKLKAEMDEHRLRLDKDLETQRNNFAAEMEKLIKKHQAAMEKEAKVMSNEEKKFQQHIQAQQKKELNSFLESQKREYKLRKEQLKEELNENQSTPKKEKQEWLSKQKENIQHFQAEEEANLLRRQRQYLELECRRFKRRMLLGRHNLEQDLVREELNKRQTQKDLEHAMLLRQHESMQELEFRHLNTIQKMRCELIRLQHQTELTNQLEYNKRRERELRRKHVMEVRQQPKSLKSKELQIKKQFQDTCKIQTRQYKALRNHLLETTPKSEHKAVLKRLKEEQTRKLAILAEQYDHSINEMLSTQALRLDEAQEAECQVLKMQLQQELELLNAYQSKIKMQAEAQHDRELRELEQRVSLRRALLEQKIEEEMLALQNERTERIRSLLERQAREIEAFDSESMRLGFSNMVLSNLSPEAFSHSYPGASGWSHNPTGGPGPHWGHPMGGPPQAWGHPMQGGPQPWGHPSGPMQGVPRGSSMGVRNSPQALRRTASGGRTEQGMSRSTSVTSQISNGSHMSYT

CCOCCn1cc(C(=O)Nc2ccc(-n3nc(-c4cccnc4)cc3C(F)(F)F)cn2)ccc1=O [BI 1935]
residual activity [1]: 100%
residual activity [2]: 37%
residual activity [3]: 73%
residual activity [4]: 60%
residual activity [5]: 100%
residual activity [6]: 100%
IC50 [7]: 7 nM (active)
residual activity [8]: 100%
residual activity [9]: 90%
residual activity [10]: 86%
inhibition [11]: 13.9%
residual activity [12]: 76%
residual activity [13]: 100%
residual activity [14]: 100%
residual activity [15]: 96%
residual activity [16]: 95%
residual activity [17]: 87%
residual activity [18]: 87%
residual activity [19]: 94%
residual activity [20]: 69%
residual activity [21]: 86%
residual activity [22]: 63%
residual activity [23]: 79%
residual activity [24]: 68%
inhibition [25]: -9.69%
residual activity [26]: 100%
residual activity [27]: 81%
residual activity [28]: 100%
residual activity [29]: 80%
residual activity [30]: 89%
